Reference: patent US12577231B2, “Androgen receptor PROTACS” (GlaxoSmithKline Intellectual Property Development Limited, priority 2023, dated 2026)

Target: T1, Androgen Receptor, LNCaP (AR T878A) (Homo sapiens, UniProt P10275, T878A)
T1 construct: endogenous in cells; host or cells: LNCaP
T1 sequence (P10275 1-920 T878A): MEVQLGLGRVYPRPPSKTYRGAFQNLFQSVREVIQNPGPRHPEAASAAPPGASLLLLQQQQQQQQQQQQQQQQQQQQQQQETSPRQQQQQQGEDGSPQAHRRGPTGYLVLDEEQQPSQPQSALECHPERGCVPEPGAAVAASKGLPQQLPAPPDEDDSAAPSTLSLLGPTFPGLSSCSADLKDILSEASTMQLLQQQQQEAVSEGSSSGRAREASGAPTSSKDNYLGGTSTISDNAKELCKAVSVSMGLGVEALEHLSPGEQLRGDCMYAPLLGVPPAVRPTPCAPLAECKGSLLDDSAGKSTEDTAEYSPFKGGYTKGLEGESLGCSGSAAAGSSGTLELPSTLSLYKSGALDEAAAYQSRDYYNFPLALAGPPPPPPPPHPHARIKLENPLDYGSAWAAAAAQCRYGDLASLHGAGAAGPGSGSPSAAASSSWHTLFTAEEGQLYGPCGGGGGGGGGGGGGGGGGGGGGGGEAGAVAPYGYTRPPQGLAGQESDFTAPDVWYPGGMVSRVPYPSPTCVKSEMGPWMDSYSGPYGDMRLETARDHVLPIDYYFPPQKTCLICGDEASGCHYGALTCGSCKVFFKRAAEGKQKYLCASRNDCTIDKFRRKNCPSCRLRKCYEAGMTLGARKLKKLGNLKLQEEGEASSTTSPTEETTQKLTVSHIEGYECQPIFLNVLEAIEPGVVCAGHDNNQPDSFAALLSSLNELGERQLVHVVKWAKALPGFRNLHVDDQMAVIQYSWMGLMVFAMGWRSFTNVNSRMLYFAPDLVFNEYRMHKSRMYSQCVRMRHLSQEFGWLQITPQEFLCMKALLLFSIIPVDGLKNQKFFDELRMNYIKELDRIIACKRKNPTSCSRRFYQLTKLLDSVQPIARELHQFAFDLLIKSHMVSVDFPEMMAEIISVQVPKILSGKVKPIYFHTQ
Assay: Androgen Receptor Degradation-Imaging Assay, LNCaP cell line
Format: cell-based
Conditions: 16 hours treatment, maximum observed degradation
Procedure: Degradation of Androgen Receptor (AR) protein in human prostate cancer cell lines (MDA-PCa-2b (AR T878A/L702H), LNCaP (AR T878A), VCaP (AR wild type and amplified) 22RV1 (AR H875Y) and PC3 (AR negative control)) treated with AR PROTACs was quantified using immunofluorescence. Prostate cancer cells were plated (MDA-PCa-2b, and VCaP 16,000 cells/well; LNCaP and 22RV1 32,000 cells/well, and PC3 8,000 cells/well) in an optical bottom 96-well cell culture plate and allowed to attach overnight. The prostate cancer cell lines were treated for 16 hours with a 10-point 3-fold dilution series (dose range=0.02 nM to 333 nM). PC3 is included as an AR negative control and not treated with compound. Cells are fixed and permeabilized with 4% formaldehyde, blocked with 10% goat serum in immunofluorescence (IF) buffer (130 mM NaCl, 7 mM Na2HPO4, 3.5 mM NaH2PO4, 7.7 mM NaN3, 0.1% BSA, 0.2% Triton X, 0.05% Tween 20) prior to overnight incubation with rabbit antibody specific for C terminus of AR (commercially available from RevMaB Biosciences). Following washes with IF buffer, cells were incubated with fluorescent secondary antibody (Goat anti-rabbit Alexa 647; commercially available from Invitrogen) and Hoechst nuclear stain (commercially available from Themo Scientific) prior to quantification of nuclear AR levels via Opera Phenix high-content fluorescent imager using a 40× water objective. Image analysis was performed with Harmony software.
The averaged nuclear Alexa 647 median fluorescence intensity (MFI) of PC3 cells is subtracted from the nuclear Alexa 647 MFI of PROTAC treated and DMSO control treated cells. % AR remaining is calculated for PROTAC treatments as a percent of the DMSO control (MFI PROTAC treated/MFI DMSO control treated)*100). DC50 and the Dmax values, were obtained from these normalised values fitted with a 4-parameter sigmoidal response curve (Xlfit software). The DC50 is the interpolated concentration of PROTAC corresponding to 50% of the protein being degraded, and the Dmax parameter is the maximum experimentally observed degradation.

| Compound | Dmax |
| --- | --- |
| CC1(C)[C@H](NC(=O)c2ccc(N3CCC(CN4CCC(n5ncc6c(N7CCC(=O)NC7=O)cccc65)CC4)CC3)c(F)c2)C(C)(C)[C@H]1Oc1ccc(C#N)c2ncccc12 [Example 6, N-((1r,3r)-3-((8-Cyanoquinolin-5-yl)oxy)-2,2,4,4-tetramethylcyclobutyl)-4-(4-((4-(4-(2,4-dioxotetrahydropyrimidin-1(2H)-yl)-1H-indazol-1-yl)piperidin-1-yl)methyl)piperidin-1-yl)-3-fluorobenzamide] | ≥ 80% |
| CC1(C)[C@H](NC(=O)c2ccc(N3CCC(CN4CCC(n5ccc6c(N7CCC(=O)NC7=O)ncnc65)CC4)CC3)c(F)c2)C(C)(C)[C@H]1Oc1ccc(C#N)c2ncccc12 [Example 47, N-((1r,3r)-3-((8-Cyanoquinolin-5-yl)oxy)-2,2,4,4-tetramethylcyclobutyl)-4-(4-((4-(4-(2,4-dioxotetrahydropyrimidin-1(2H)-yl)-7H-pyrrolo[2,3-d]pyrimidin-7-yl)piperidin-1-yl)methyl)piperidin-1-yl)-3-fluorobenzamide] | ≥ 80% |
| CC1(C)[C@H](NC(=O)c2ccc(N3CCC(CN4CCC(n5ncc6c(N7CCC(=O)NC7=O)nccc65)CC4)CC3)c(F)c2)C(C)(C)[C@H]1Oc1ccc(C#N)c2ncccc12 [Example 39, N-((1r,3r)-3-((8-Cyanoquinolin-5-yl)oxy)-2,2,4,4-tetramethylcyclobutyl)-4-(4-((4-(4-(2,4-dioxotetrahydropyrimidin-1(2H)-yl)-1H-pyrazolo[4,3-c]pyridin-1-yl)piperidin-1-yl)methyl)piperidin-1-yl)-3-fluorobenzamide] | ≥ 80% |
| CC1(C)[C@H](NC(=O)c2ccc(N3CCC(CN4CCC(n5ncc6c(N7CCC(=O)NC7=O)cccc65)CC4)CC3)c(F)c2)C(C)(C)[C@H]1Oc1ccc(C#N)c2c1CCCO2 [Example 8, N-((1r,3r)-3-((8-Cyanochroman-5-yl)oxy)-2,2,4,4-tetramethylcyclobutyl)-4-(4-((4-(4-(2,4-dioxotetrahydropyrimidin-1(2H)-yl)-1H-indazol-1-yl)piperidin-1-yl)methyl)piperidin-1-yl)-3-fluorobenzamide] | ≥ 80% |
| CC1(C)[C@H](NC(=O)c2ccc(N3CCC(O)(CN4CCC(n5ncc6c(N7CCC(=O)NC7=O)cccc65)CC4)CC3)c(F)c2)C(C)(C)[C@H]1Oc1ccc(C#N)c2ncccc12 [Example 48, N-((1r,3r)-3-((8-Cyanoquinolin-5-yl)oxy)-2,2,4,4-tetramethylcyclobutyl)-4-(4-((4-(4-(2,4-dioxotetrahydropyrimidin-1(2H)-yl)-1H-indazol-1-yl)piperidin-1-yl)methyl)-4-hydroxypiperidin-1-yl)-3-fluorobenzamide] | ≥ 80% |
| CC1(C)[C@H](NC(=O)c2cc(F)c(N3CCC(CN4CCC(n5ncc6c(N7CCC(=O)NC7=O)cccc65)CC4)CC3)c(F)c2)C(C)(C)[C@H]1Oc1ccc(C#N)c2ncccc12 [Example 30, N-((1r,3r)-3-((8-Cyanoquinolin-5-yl)oxy)-2,2,4,4-tetramethylcyclobutyl)-4-(4-((4-(4-(2,4-dioxotetrahydropyrimidin-1(2H)-yl)-1H-indazol-1-yl)piperidin-1-yl)methyl)piperidin-1-yl)-3,5-difluorobenzamide] | ≥ 80% |

Results, then the compound that gave them:

| Dmax | Compound |
| --- | --- |
| ≥ 80% | CC1(C)[C@H](NC(=O)c2ccc(N3CCC(CN4CCC(n5ccc6c(N7CCC(=O)NC7=O)cc(F)cc65)CC4)CC3)c(F)c2)C(C)(C)[C@H]1Oc1ccc(C#N)c2ncccc12 [Example 32, N-((1r,3r)-3-((8-Cyanoquinolin-5-yl)oxy)-2,2,4,4-tetramethylcyclobutyl)-4-(4-((4-(4-(2,4-dioxotetrahydropyrimidin-1(2H)-yl)-6-fluoro-1H-indol-1-yl)piperidin-1-yl)methyl)piperidin-1-yl)-3-fluorobenzamide] |
| ≥ 80% | COc1cc(O[C@H]2C(C)(C)[C@H](NC(=O)c3ccc(N4CCC(CN5CCC(n6ncc7c(N8CCC(=O)NC8=O)cccc76)CC5)CC4)cc3)C2(C)C)ccc1C#N [Example 15, N-((1r,3r)-3-(4-Cyano-3-methoxyphenoxy)-2,2,4,4-tetramethylcyclobutyl)-4-(4-((4-(4-(2,4-dioxotetrahydropyrimidin-1(2H)-yl)-1H-indazol-1-yl)piperidin-1-yl)methyl)piperidin-1-yl)benzamide] |
| ≥ 80% | COc1cc(O[C@H]2C(C)(C)[C@H](NC(=O)c3ccc(N4CCC(CN5CCC(n6ncc7c(N8CCC(=O)NC8=O)nccc76)CC5)CC4)c(F)c3)C2(C)C)ccc1C#N [Example 20, N-((1r,3r)-3-(4-Cyano-3-methoxyphenoxy)-2,2,4,4-tetramethylcyclobutyl)-4-(4-((4-(4-(2,4-dioxotetrahydropyrimidin-1(2H)-yl)-1H-pyrazolo[4,3-c]pyridin-1-yl)piperidin-1-yl)methyl)piperidin-1-yl)-3-fluorobenzamide] |
| ≥ 80% | COc1cc(O[C@H]2C(C)(C)[C@H](NC(=O)c3ccc(N4CCC(CN5CCC(n6ccc7c(N8CCC(=O)NC8=O)cccc76)CC5)CC4)cc3)C2(C)C)ccc1C#N [Example 16, N-((1r,3r)-3-(4-Cyano-3-methoxyphenoxy)-2,2,4,4-tetramethylcyclobutyl)-4-(4-((4-(4-(2,4-dioxotetrahydropyrimidin-1(2H)-yl)-1H-indol-1-yl)piperidin-1-yl)methyl)piperidin-1-yl)benzamide] |
| ≥ 80% | CC1(C)[C@H](NC(=O)c2ccc(N3CCC(CN4CCC(n5ccc6c(N7CCC(=O)NC7=O)ncnc65)CC4)CC3)cc2)C(C)(C)[C@H]1Oc1ccc(C#N)c2ncccc12 [Example 28, N-((1r,3r)-3-((8-Cyanoquinolin-5-yl)oxy)-2,2,4,4-tetramethylcyclobutyl)-4-(4-((4-(4-(2,4-dioxotetrahydropyrimidin-1(2H)-yl)-7H-pyrrolo[2,3-d]pyrimidin-7-yl)piperidin-1-yl)methyl)piperidin-1-yl)benzamide] |
